# Patent US20260357349A1, “METHODS OF IDENTIFYING AND TREATING CANCER” (Agency for Science, Technology and Research, priority 2022, published 2026)
# Assays:
# [1] = tested on: NCC432 cells; assay: Colony formation, NCC432 isogenic cells; format: cell-based, human; settings: NCC432, a week
# Procedure: Colony formation of parental (WT) or PBRM1 knockout (KO) 786-O cells expressing shRNA against non-targeting control (NC), RELA, or NFKB1 cultured with a) 10% or b) 2% serum. c) Gene expression changes of NF-κB target genes in 786-O cells treated with 0.006 μM bortezomib (BTZ) or 0.6 µM Bay 11-7085 for 24 hours (n=3 technical replicates). * p-value<0.05 (two-sided t-test). […] A positive log fold change refers to gain in bortezomib treatment over DMSO. g) Colony formation of 786-O isogenic cells and h) NCC432 isogenic cells treated with bortezomib for a week. Tumor formation of isogenic 786-O cells (i) and NCC432 cells (j) treated with PBS control or 0.5 mg/kg bortezomib (BTZ) in NSG mice. (n=10 tumors per group for 786-O, and n=16 tumors for NCC432 PBS EV group and 12 tumors for NCC432 PBS PBRM1 group and 14 tumors for both NCC432 EV and PBRM1 BTZ groups). Data are presented as mean values+/−SEM. k) Model for the study.
# In 6 wells, 1,000 786-O cells or 2,500 NCC432 cells were seeded and treated with DMSO control or increasing concentration of drugs for 7 days and stained with crystal violet. For drug screening, we used SGC epigenetic probe collection. For RNA-seq with bortezomib treatment, 2×10^5 786-O cells were treated with DMSO or 0.005 μM bortezomib and harvested 9 hours after treatment for RNA extraction. […]
# [2] = tested on: RELA; assay: Total RELA protein level after bortezomib; format: cell-based, human; settings: bortezomib treatment
# Procedure: Data are presented as median+/−25%. Lower whisker is smallest observation greater than or equal to 25% quantile-1.5*interquantile range (IQR). Upper whisker represents the largest observation less than or equal to 75%+1.5*IQR. Amount of normalized RELA protein in the c) input or d) co-immunoprecipitated with SMARCA4 from 3 independent runs. […]
# Cell lines were harvested with cold RIPA lysis buffer (50 mM Tris pH 8, 150 mM NaCl, 0.1% Triton X-100, 0.5% Sodium deoxycholate, 0.1% SDS) with protease inhibitors (Roche) on ice. […] Protein concentration was measured by Pierce BCA protein assay (Life Technologies). […]
smiles,measurement,setting,value
CC(C)C[C@H](NC(=O)[C@H](Cc1ccccc1)NC(=O)c1cnccn1)B(O)O [bortezomib],"reduction of colony formation, PB1-deficient vs PB1-proficient isogenic cells",[1],preferential reduction of colony formation
same,effect on total protein levels of RELA,[2],did not significantly affect
